The values below come from patent US10132796B2, “Method for detecting and quantifying a target molecule in a tissue” (IMABIOTECH, priority 2011, dated 2018).

Structures are written as SMILES.

The series is described as follows: Quantification of propranolol in a treated mouse kidney by MALDI mass spectrometry imaging. Type of series: in vivo. Conditions: mouse treated with 7.5 mg/kg propranolol, sacrificed 20 minutes post-administration, kidney slices 20 μm, calibration curve from reconstituted kidney. On the procedure:
A mouse kidney treated with 7.5 mg/kg of propranolol, and sacrificed 20 minutes post-administration, is taken.
Three 20 μm thick tissue slices are produced from the kidney and are each deposited on a support (slide ITO).
MALDI DHB matrix (40 mg/ml methanol/TFA 0.1% 1/1) is sprayed using a robotized system (SunCollect) onto the slices.
Each slice is analysed by mass spectrometry imaging, using an Autoflex speed LRF (Bruker, Daltonics). The average intensity of the peaks of the mass spectrum of the propranolol (m/z 260.2) is computed, by once again using a number of ROIs on each slice, all dimensions being the same.
The average intensity value obtained is 19633.3.
The propranolol concentration in the kidney is quantified using the calibration curve equation (FIG. 2), by including the average intensity value obtained on said straight line. The propranolol here is in a concentration of 5.9 μg/g of tissue.

Regarding `CC(C)NCC(O)COc1cccc2ccccc12` (stereo not shown) [propranolol], the “propranolol concentration in the kidney” value is 5.9 μg/g of tissue.
